Reference: the supplement of paper PMC10307832

Compound: CO[C@@H]1[C@H](N(C)C(=O)c2ccccc2)C[C@H]2O[C@]1(C)n1c3ccccc3c3c4c(c5c6ccccc6n2c5c31)C(=O)NC4 [Midostaurin] + CS(=O)(=O)CCNCc1ccc(-c2ccc3ncnc(Nc4ccc(OCc5cccc(F)c5)c(Cl)c4)c3c2)o1 [Lapatinib] (partner 2 µM)
Test: relative viability (nuclei count vs DMSO), 5 days (fraction); higher = more cells survive
Details: first compound 0.1 µM
Summary of the method: (§1)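 Cells from lung cancer lines were seeded into 1536-well plates and, one day later, dosed by pin tool. Treatments were either a single drug or a fixed dose of an anchor drug with five library-drug doses (not always all listed) in √10 steps. After 5 days, nuclei were stained in a one-step fixation (final 0.05% Triton X-100, 1% formaldehyde, 1 ug/ml Hoechst) and counted on 4× images, and relative viability is the treated-to-vehicle nuclei ratio, as the median of duplicate plates.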

Row | Cell Line | relative viability
1 | NCI-H2023 | 0.777
2 | HCC-15 | 0.692
3 | PC-14 | 0.302
4 | EKVX | 0.242
5 | LC-2-ad | 0.982
6 | NCI-H1944 | 0.898
7 | NCI-H1975 | 0.871
8 | RERF-LC-KJ | 0.907
9 | ABC-1 | 1
10 | NCI-H358 | 0.584
11 | NCI-H650 | 0.582
12 | PC-3 [JPC-3] | 0.488

Same assay, conditions: first compound 0.3162 µM

Row | Cell Line | relative viability
13 | NCI-H2023 | 0.555
14 | HCC-15 | 0.921
15 | PC-14 | 0.266
16 | EKVX | 0.212
17 | LC-2-ad | 0.855
18 | NCI-H1944 | 0.977
19 | NCI-H1975 | 0.665
20 | RERF-LC-KJ | 0.922
21 | ABC-1 | 1.17
22 | NCI-H358 | 0.499
23 | NCI-H650 | 0.687
24 | PC-3 [JPC-3] | 0.43

Compound: COc1cc(-c2nn([C@H]3CC[C@H](N4CCN(C(C)=O)CC4)CC3)c3ncnc(N)c23)ccc1NC(=O)c1cc2ccccc2n1C + N=C(N)NC(=N)NCCc1ccccc1 [Phenformin] (partner 250 µM)
Test: as above
Details: first compound 0.0128 µM
Summary of the method: as §1

Row | Cell Line | relative viability
25 | NCI-H2023 | 0.404
26 | HCC-15 | 0.525
27 | PC-14 | 0.646
28 | EKVX | 0.234
29 | LC-2-ad | 0.642
30 | NCI-H1944 | 0.238
31 | NCI-H1975 | 0.393
32 | RERF-LC-KJ | 0.377
33 | ABC-1 | 0.231
34 | NCI-H358 | 0.329
35 | NCI-H650 | 0.519
36 | PC-3 [JPC-3] | 0.488

Same assay, conditions: first compound 0.04048 µM

Row | Cell Line | relative viability
37 | NCI-H2023 | 0.426
38 | HCC-15 | 0.447
39 | PC-14 | 0.599
40 | EKVX | 0.245
41 | LC-2-ad | 0.552
42 | NCI-H1944 | 0.198
43 | NCI-H1975 | 0.392
44 | RERF-LC-KJ | 0.448
45 | ABC-1 | 0.245
46 | NCI-H358 | 0.283
47 | NCI-H650 | 0.593
48 | PC-3 [JPC-3] | 0.474

Same assay, conditions: first compound 0.128 µM

Row | Cell Line | relative viability
49 | NCI-H2023 | 0.355
50 | HCC-15 | 0.476
51 | PC-14 | 0.581
52 | EKVX | 0.211
53 | LC-2-ad | 0.593
54 | NCI-H1944 | 0.184
55 | NCI-H1975 | 0.385
56 | RERF-LC-KJ | 0.413
57 | ABC-1 | 0.225
58 | NCI-H358 | 0.254
59 | NCI-H650 | 0.459
60 | PC-3 [JPC-3] | 0.461

Same assay, conditions: first compound 1.28 µM

Row | Cell Line | relative viability
61 | NCI-H2023 | 0.323
62 | HCC-15 | 0.42
63 | PC-14 | 0.751
64 | EKVX | 0.199
65 | LC-2-ad | 0.503
66 | NCI-H1944 | 0.165
67 | NCI-H1975 | 0.254
68 | RERF-LC-KJ | 0.379
69 | ABC-1 | 0.243
70 | NCI-H358 | 0.187
71 | NCI-H650 | 0.462
72 | PC-3 [JPC-3] | 0.512

Compound: CO[C@@H]1[C@H](N(C)C(=O)c2ccccc2)C[C@H]2O[C@]1(C)n1c3ccccc3c3c4c(c5c6ccccc6n2c5c31)C(=O)NC4 [Midostaurin] + CC(=O)c1c(C)c2cnc(Nc3ccc(N4CCNCC4)cn3)nc2n(C2CCCC2)c1=O [Palbociclib] (partner 0.5 µM)
Test: as above
Details: first compound 0.01 µM
Summary of the method: as §1

Row | Cell Line | relative viability
73 | NCI-H2023 | 0.482
74 | HCC-15 | 0.806
75 | PC-14 | 0.487
76 | EKVX | 0.443
77 | LC-2-ad | 0.482
78 | NCI-H1944 | 0.36
79 | NCI-H1975 | 0.524
80 | RERF-LC-KJ | 0.993
81 | ABC-1 | 0.709
82 | NCI-H358 | 0.123
83 | NCI-H650 | 0.347
84 | PC-3 [JPC-3] | 0.561

Same assay, conditions: first compound 0.03162 µM

Row | Cell Line | relative viability
85 | NCI-H2023 | 0.428
86 | HCC-15 | 0.788
87 | PC-14 | 0.643
88 | EKVX | 0.45
89 | LC-2-ad | 0.53
90 | NCI-H1944 | 0.402
91 | NCI-H1975 | 0.65
92 | RERF-LC-KJ | 1.08
93 | ABC-1 | 1.01
94 | NCI-H358 | 0.134
95 | NCI-H650 | 0.34
96 | PC-3 [JPC-3] | 0.554

Same assay, conditions: first compound 0.1 µM

Row | Cell Line | relative viability
97 | NCI-H2023 | 0.341
98 | HCC-15 | 0.771
99 | PC-14 | 0.485
100 | EKVX | 0.362
101 | LC-2-ad | 0.536
102 | NCI-H1944 | 0.318
103 | NCI-H1975 | 0.564
104 | RERF-LC-KJ | 1.13
105 | ABC-1 | 0.679
106 | NCI-H358 | 0.114
107 | NCI-H650 | 0.318
108 | PC-3 [JPC-3] | 0.546

Same assay, conditions: first compound 0.3162 µM

Row | Cell Line | relative viability
109 | NCI-H2023 | 0.192
110 | HCC-15 | 0.73
111 | PC-14 | 0.369
112 | EKVX | 0.401
113 | LC-2-ad | 0.566
114 | NCI-H1944 | 0.35
115 | NCI-H1975 | 0.583
116 | RERF-LC-KJ | 1.02
117 | ABC-1 | 0.559
118 | NCI-H358 | 0.136
119 | NCI-H650 | 0.313
120 | PC-3 [JPC-3] | 0.602
